Results as given in patent US20230022157A1 (Achillion Pharmaceuticals, Inc., priority 2018, published 2023).

What follows are compounds tested against T1, Human Factor D (Homo sapiens, UniProt P00746) (assay: Human Factor D Assay). Details: Human Factor D 80 nM, substrate Z-L-Lys-SBzl, assay of Example 3; read-out: IC50 (Stars).
T1 construct: purified from human serum; purchased Complement Technology, Inc; host or cells: human serum (natural protein, not recombinant)
T1 sequence (P00746 26-253): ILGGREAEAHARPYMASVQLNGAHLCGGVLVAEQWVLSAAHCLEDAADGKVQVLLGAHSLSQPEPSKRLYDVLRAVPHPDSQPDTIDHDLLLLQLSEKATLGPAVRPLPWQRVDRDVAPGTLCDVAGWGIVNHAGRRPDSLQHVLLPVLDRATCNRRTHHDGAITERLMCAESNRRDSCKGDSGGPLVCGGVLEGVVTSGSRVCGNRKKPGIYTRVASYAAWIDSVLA
Assay type: biochemical
Method in brief: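 Serum-purified human factor D (80 nM final) preincubated 5 min at room temperature with test compound in 50 mM Tris, 1M NaCl, pH 7.5. Z-L-Lys-SBzl substrate and DTNB then added, each at 100 μM final. IC50 from nonlinear regression of reaction rate against compound concentration.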
For `CC(=O)c1nn(CC(=O)N2[C@H](C(=O)Nc3nc(Br)ccc3C)C[C@@]3(C)C[C@@H]23)c2ccc(-c3cnc(CO)nc3)cc12` [Compound 30, (1R,3S,5R)-2-(2-(3-acetyl-5-(2-(hydroxymethyl)pyrimidin-5-yl)-1H-indazol-1-yl)acetyl)-N-(6-bromo-3-methylpyridin-2-yl)-5-methyl-2-azabicyclo[3.1.0]hexane-3-carboxamide], the IC50 was under 1000 nM. `CC(=O)c1nn(CC(=O)N2[C@H](C(=O)N[C@H](C)CCc3ccccc3)C[C@@]3(C)C[C@@H]23)c2ccc(-c3cnc(C)nc3)cc12` [Compound 13, (1R,3S,5R)-2-(2-(3-Acetyl-5-(2-methylpyrimidin-5-yl)-1H-indazol-1-yl)acetyl)-5-methyl-N—((R)-4-phenylbutan-2-yl)-2-azabicyclo[3.1.0]hexane-3-carboxamide] gave an IC50 of under 1000 nM.

Same assay, conditions: Human Factor D 80 nM, substrate Z-L-Lys-SBzl; Table 2; read-out: IC50 (Stars)
Compound `CC(=O)c1nn(CC(=O)N2[C@H](C(=O)N[C@@H](C(C)(C)C)C(F)(F)F)C[C@@]3(C)C[C@@H]23)c2c(C)cc(-c3cnc(C)nc3)cc12` [Compound 154, (1R,3S,5R)-2-{2-[3-acetyl-7-methyl-5-(2-methylpyrimidin-5-yl)indazol-1-yl]acetyl}-5-methyl-N-[(2S)-1,1,1-trifluoro-3,3-dimethylbutan-2-yl]-2-azabicyclo[3.1.0]hexane-3-carboxamide] has an IC50 of 1000 to 10000 nM. For `Cc1ncc(-c2cc3c(C(N)=O)nn(CC(=O)N4[C@H](C(=O)Nc5nc(Br)c(F)cc5C)C[C@@]5(C)C[C@@H]45)c3c(CO)n2)cn1` [Compound 184, 1-(2-((1R,3S,5R)-3-((6-bromo-5-fluoro-3-methylpyridin-2-yl)carbamoyl)-5-methyl-2-azabicyclo[3.1.0]hexan-2-yl)-2-oxoethyl)-7-(hydroxymethyl)-5-(2-methylpyrimidin-5-yl)-1H-pyrazol[3,4-c]pyridine-3-carboxamide], the IC50 was under 1000 nM. In the case of `CC(=O)c1nn(CC(=O)N2[C@H](C(=O)NC(C)c3cccnn3)C[C@@]3(C)C[C@@H]23)c2c(C)cc(-c3cnc(C)nc3)cc12` (stereo partly drawn) [Compound 189, (1R,3S,5R)-2-{2-[3-acetyl-7-methyl-5-(2-methylpyrimidin-5-yl)indazol-1-yl]acetyl}-5-methyl-N-[1-(pyridazin-3-yl)ethyl]-2-azabicyclo[3.1.0]hexane-3-carboxamide], the IC50 is reported as under 1000 nM. Compound `CC(=O)c1nn(CC(=O)N2[C@H](C(=O)Nc3nc(Br)ccc3C)C[C@@]3(C)C[C@@H]23)c2c(C)cc(-c3ccc(CO)nc3)cc12` [Compound 82, (1R,3S,5R)-2-(2-(3-acetyl-5-(6-(hydroxymethyl)pyridin-3-yl)-7-methyl-1H-indazol-1-yl)acetyl)-N-(6-bromo-3-methylpyridin-2-yl)-5-methyl-2-azabicyclo[3.1.0]hexane-3-carboxamide] has an IC50 of under 1000 nM. With `CC(=O)c1nn(CC(=O)N2[C@H](C(=O)Nc3nc(C(F)(F)F)ccc3C)C[C@@]3(C)C[C@@H]23)c2c(C)cc(-c3cnc4c(O)c(C)nn4c3)cc12` [Compound 232, (1R,3S,5R)-2-(2-(3-acetyl-5-(3-hydroxy-2-methylpyrazolo[1,5-a]pyrimidin-6-yl)-7-methyl-1H-indazol-1-yl)acetyl)-5-methyl-N-(3-methyl-6-(trifluoromethyl)pyridin-2-yl)-2-azabicyclo[3.1.0]hexane-3-carboxamide] the IC50 was under 1000 nM. `COCc1ccc(Br)nc1NC(=O)[C@@H]1C[C@@]2(C)C[C@H]2N1C(=O)Cn1cc(C(C)=O)c2cc(-c3cnc(C)nc3)cc(C)c21` [Compound 214, (1R,3S,5R)-2-(2-(3-acetyl-7-methyl-5-(2-methyl-pyrimidin-5-yl)-1H-indol-1-yl)acetyl)-N-(6-bromo-3-(methoxymethyl)pyridin-2-yl)-5-methyl-2-azabicyclo[3.1.0]hexane-3-carboxamide] showed an IC50 of under 1000 nM. Compound `CC(=O)c1cn(CC(=O)N2[C@H](C(=O)Nc3nc(C(F)(F)F)ccc3C)C[C@@]3(C)C[C@@H]23)c2c(C)cc(-c3cnc4c(O)c(C)nn4c3)cc12` [Compound 231, (1R,3S,5R)-2-(2-(3-acetyl-5-(3-hydroxy-2-methylpyrazolo[1,5-a]pyrimidin-6-yl)-7-methyl-1H-indol-1-yl)acetyl)-5-methyl-N-(3-methyl-6-(trifluoromethyl)pyridin-2-yl)-2-azabicyclo[3.1.0]hexane-3-carboxamide] has an IC50 of under 1000 nM. With `CC(=O)c1nn(CC(=O)N2[C@H](C(=O)NC(C)CC3CCC3)C[C@@]3(C)C[C@@H]23)c2c(C)cc(-c3cnc(C)nc3)cc12` (stereo partly shown) [Compound 134] the IC50 was under 1000 nM. For `COC[C@@]12C[C@@H](C(=O)Nc3nc(C(F)(F)F)ccc3C)N(C(=O)Cn3cc(C(C)=O)c4cc(-c5cnc(C)nc5)cc(C)c43)[C@@H]1C2` [Compound 229, (1R,3S,5S)-2-(2-(3-acetyl-7-methyl-5-(2-methylpyrimidin-5-yl)-1H-indol-1-yl)acetyl)-5-(methoxymethyl)-N-(3-methyl-6-(trifluoromethyl)pyridin-2-yl)-2-azabicyclo[3.1.0]hexane-3-carboxamide], the IC50 was under 1000 nM. Work on `CC(=O)c1nn(CC(=O)N2[C@H](C(=O)N[C@H]3CCCCC3(F)F)C[C@@]3(C)C[C@@H]23)c2c(C)cc(-c3cnc(C)nc3)cc12` [Compound 149, (1R,3S,5R)-2-{2-[3-acetyl-7-methyl-5-(2-methylpyrimidin-5-yl)indazol-1-yl]acetyl}-N-[(1S)-2,2-difluorocyclohexyl]-5-methyl-2-azabicyclo[3.1.0]hexane-3-carboxamide] yielded an IC50 of under 1000 nM. For `CC(=O)c1nn(CC(=O)N2[C@H]3CC[C@H](C3)[C@H]2C(=O)Nc2nc(C(F)(F)F)ccc2C)c2c(C)cc(-c3cnc(C(C)O)nc3)cc12` (stereo partly drawn) [Compound 171, (1S,3S,4R)-2-(2-(3-acetyl-5-(2-(1-hydroxyethyl)pyrimidin-5-yl)-7-methyl-1H-indazol-1-yl)acetyl)-N-(3-methyl-6-(trifluoromethyl)pyridin-2-yl)-2-azabicyclo[2.2.1]heptane-3-carboxamide], the IC50 was under 1000 nM. With `CC(=O)c1nn(CC(=O)N2[C@H](C(=O)Nc3nc(C(C)(F)F)ccc3C)C[C@@]3(C)C[C@@H]23)c2c(C)cc(-c3cnc(C)nc3)cc12` [Compound 130, (1R,3S,5R)-2-(2-(3-Acetyl-7-methyl-5-(2-methylpyrimidin-5-yl)-1H-indazol-1-yl)acetyl)-N-(6-(1,1-difluoroethyl)-3-methylpyridin-2-yl)-5-methyl-2-azabicyclo[3.1.0]hexane-3-carboxamide] the IC50 was under 1000 nM. `CC(=O)c1nn(CC(=O)N2[C@H](C(=O)N[C@@H]3CCCC[C@@H]3C)C[C@@]3(C)C[C@@H]23)c2c(C)cc(-c3cnc(C)nc3)cc12` [Compound 190, (1R,3S,5R)-2-{2-[3-acetyl-7-methyl-5-(2-methylpyrimidin-5-yl)indazol-1-yl]acetyl}-5-methyl-N-[(1R,2S)-2-methylcyclohexyl]-2-azabicyclo[3.1.0]hexane-3-carboxamide] gave an IC50 of under 1000 nM. With `CC(=O)c1cn(CC(=O)N2[C@H](C(=O)Nc3nc(Br)ccc3C)C[C@@]3(C)C[C@@H]23)c2c(C)cc(-c3cnc4cc(C)nn4c3)cc12` [Compound 198, (1R,3S,5R)-2-(2-(3-acetyl-7-methyl-5-(2-methylpyrazolo[1,5-a]pyrimidin-6-yl)-1H-indol-1-yl)acetyl)-N-(6-bromo-3-methylpyridin-2-yl)-5-methyl-2-azabicyclo[3.1.0]hexane-3-carboxamide] the IC50 was under 1000 nM.
